From patent US12258327B2, “5-membered heteroaryl-containing aminopyridine compounds as EGFR inhibitors” (YUHAN CORPORATION, priority 2021, dated 2025) come the findings set out here.

The target of experiment [1] is EGFR del19/T790M/C797S (Homo sapiens, UniProt P00533, C797S/DEL746-750/T790M). Kind of experiment: Biochemical EGFR kinase assay (Lance Ultra TR-FRET), triple mutant del19/T790M/C797S. Put shortly:
(§1)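 Step 1: compound in kinase buffer, 0.003–10 μM. Step 2: kinase reaction 1 h at room temperature. Step 4: TR-FRET read at 615/665 nm; IC50 calculated.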
(TR-FRET usually uses a lanthanide donor and a delayed reading to cut background.)

Experiment [2] has as its target EGFR L858R/T790M/C797S (Homo sapiens, UniProt P00533, C797S/L858R/T790M). Put plainly: Biochemical EGFR kinase assay (Lance Ultra TR-FRET), triple mutant L858R/T790M/C797S. Summed up:
as §1

The target of experiment [3] is EGFR del19/C797S (Homo sapiens, UniProt P00533, C797S/DEL746-750). Put plainly: Biochemical EGFR kinase assay (Lance Ultra TR-FRET), double mutant del19/C797S. Summed up:
as §1

Experiment [4] has as its target EGFR L858R/C797S (Homo sapiens, UniProt P00533, C797S/L858R). Put plainly: Biochemical EGFR kinase assay (Lance Ultra TR-FRET), double mutant L858R/C797S. Summed up:
as §1

Experiment [5] has as its target EGFR wildtype (WT) (Homo sapiens, UniProt P00533). Kind of experiment: Biochemical EGFR kinase assay (Lance Ultra TR-FRET), wildtype. Put shortly:
as §1

Where [6] appears, read: Km ATP, read-out: IC50 del19/T790M/C797S (nM) Km ATP.
The mark [7] stands for this setting: Km ATP, read-out: IC50 L858R/T790M/C797S (nM) Km ATP.
Setting [8] is: Km ATP, read-out: IC50 del19/C797S (nM) Km ATP.
Where [9] appears, read: Km ATP, read-out: IC50 L858R/C797S (nM) Km ATP.
Where [10] appears, read: Km ATP, read-out: IC50 WT (nM) Km ATP.
Setting [11] is: IC50 del19/T790M/C797S (nM) 100 μM ATP, 100 μM ATP.
Setting [12] is: IC50 L858R/T790M/C797S (nM) 100 μM ATP, 100 μM ATP.
Setting [13] is: IC50 del19/C797S (nM) 100 μM ATP, 100 μM ATP.
[14] abbreviates: IC50 L858R/C797S (nM) 100 μM ATP, 100 μM ATP.
Where [15] appears, read: IC50 WT (nM) 100 μM ATP, 100 μM ATP.

Each structure is given as a SMILES string. pIC50: −log10 of the molar value. Read-outs that look alike come from different tables or passages of the source. Where only a bound is given, the exact number is not on record here.

Sequence of EGFR del19/C797S (P00533 with tags, fused parts or gaps DEL746-750/C797S): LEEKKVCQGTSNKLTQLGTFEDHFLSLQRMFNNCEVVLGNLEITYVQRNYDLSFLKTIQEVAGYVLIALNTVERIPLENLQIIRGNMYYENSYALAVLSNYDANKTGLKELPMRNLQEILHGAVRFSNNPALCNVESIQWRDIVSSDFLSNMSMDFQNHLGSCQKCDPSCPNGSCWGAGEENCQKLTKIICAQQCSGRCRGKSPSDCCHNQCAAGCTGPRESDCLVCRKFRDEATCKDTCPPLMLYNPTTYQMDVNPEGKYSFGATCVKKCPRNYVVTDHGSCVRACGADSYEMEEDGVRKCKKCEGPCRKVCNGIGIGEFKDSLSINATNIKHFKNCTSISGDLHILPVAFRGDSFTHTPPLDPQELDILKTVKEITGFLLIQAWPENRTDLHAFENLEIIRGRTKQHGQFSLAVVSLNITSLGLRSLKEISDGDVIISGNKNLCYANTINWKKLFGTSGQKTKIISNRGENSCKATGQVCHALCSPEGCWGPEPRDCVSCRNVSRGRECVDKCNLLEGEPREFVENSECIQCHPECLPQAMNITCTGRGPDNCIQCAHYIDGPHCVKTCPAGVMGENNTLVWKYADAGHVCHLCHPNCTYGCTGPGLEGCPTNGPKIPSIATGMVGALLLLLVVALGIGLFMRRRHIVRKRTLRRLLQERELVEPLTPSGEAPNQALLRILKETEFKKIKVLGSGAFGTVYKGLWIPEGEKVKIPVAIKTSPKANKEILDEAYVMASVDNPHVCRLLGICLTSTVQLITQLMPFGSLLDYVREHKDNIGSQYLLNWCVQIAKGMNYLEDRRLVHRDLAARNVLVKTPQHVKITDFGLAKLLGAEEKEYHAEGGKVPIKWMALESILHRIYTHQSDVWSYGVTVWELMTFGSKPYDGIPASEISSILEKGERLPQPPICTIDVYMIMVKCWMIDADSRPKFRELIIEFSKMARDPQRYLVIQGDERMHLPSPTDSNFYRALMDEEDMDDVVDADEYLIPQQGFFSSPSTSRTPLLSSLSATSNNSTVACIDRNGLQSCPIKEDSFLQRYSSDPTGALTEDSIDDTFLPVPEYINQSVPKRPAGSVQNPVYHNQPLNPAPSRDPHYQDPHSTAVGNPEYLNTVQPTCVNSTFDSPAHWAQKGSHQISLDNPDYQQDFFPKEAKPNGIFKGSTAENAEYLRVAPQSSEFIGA
Sequence of EGFR del19/T790M/C797S (P00533 with tags, fused parts or gaps DEL746-750/T790M/C797S): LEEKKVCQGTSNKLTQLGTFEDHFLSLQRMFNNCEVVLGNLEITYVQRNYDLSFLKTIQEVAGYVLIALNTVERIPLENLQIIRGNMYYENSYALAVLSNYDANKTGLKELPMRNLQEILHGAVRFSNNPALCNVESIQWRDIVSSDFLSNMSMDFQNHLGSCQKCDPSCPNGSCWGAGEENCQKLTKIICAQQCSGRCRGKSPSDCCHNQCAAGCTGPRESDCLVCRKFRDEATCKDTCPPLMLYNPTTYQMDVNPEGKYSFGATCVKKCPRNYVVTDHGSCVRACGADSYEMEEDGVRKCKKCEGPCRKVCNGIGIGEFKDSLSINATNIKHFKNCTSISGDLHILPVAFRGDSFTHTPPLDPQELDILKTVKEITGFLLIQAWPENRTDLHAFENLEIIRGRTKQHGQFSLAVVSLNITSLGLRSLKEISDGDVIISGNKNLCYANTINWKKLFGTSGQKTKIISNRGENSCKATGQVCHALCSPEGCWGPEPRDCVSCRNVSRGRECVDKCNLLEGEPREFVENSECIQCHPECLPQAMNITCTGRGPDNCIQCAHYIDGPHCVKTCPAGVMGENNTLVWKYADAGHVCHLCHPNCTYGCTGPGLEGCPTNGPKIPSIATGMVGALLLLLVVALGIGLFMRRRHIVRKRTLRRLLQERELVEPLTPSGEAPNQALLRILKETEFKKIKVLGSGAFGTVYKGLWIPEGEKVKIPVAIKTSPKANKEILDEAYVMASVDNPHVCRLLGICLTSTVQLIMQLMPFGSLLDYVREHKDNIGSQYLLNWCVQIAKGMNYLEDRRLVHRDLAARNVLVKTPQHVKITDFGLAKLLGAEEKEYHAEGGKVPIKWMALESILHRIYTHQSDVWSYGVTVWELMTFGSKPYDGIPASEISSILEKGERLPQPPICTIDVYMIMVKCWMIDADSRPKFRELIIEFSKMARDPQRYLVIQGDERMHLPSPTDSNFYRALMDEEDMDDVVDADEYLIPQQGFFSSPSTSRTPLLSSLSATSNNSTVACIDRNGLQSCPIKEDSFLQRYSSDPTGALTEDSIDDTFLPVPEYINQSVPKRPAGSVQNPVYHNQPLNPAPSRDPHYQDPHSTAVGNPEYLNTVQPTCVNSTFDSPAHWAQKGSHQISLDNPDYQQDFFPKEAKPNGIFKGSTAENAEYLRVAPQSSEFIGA
Sequence of EGFR L858R/T790M/C797S (P00533 25-1210 T790M/C797S/L858R): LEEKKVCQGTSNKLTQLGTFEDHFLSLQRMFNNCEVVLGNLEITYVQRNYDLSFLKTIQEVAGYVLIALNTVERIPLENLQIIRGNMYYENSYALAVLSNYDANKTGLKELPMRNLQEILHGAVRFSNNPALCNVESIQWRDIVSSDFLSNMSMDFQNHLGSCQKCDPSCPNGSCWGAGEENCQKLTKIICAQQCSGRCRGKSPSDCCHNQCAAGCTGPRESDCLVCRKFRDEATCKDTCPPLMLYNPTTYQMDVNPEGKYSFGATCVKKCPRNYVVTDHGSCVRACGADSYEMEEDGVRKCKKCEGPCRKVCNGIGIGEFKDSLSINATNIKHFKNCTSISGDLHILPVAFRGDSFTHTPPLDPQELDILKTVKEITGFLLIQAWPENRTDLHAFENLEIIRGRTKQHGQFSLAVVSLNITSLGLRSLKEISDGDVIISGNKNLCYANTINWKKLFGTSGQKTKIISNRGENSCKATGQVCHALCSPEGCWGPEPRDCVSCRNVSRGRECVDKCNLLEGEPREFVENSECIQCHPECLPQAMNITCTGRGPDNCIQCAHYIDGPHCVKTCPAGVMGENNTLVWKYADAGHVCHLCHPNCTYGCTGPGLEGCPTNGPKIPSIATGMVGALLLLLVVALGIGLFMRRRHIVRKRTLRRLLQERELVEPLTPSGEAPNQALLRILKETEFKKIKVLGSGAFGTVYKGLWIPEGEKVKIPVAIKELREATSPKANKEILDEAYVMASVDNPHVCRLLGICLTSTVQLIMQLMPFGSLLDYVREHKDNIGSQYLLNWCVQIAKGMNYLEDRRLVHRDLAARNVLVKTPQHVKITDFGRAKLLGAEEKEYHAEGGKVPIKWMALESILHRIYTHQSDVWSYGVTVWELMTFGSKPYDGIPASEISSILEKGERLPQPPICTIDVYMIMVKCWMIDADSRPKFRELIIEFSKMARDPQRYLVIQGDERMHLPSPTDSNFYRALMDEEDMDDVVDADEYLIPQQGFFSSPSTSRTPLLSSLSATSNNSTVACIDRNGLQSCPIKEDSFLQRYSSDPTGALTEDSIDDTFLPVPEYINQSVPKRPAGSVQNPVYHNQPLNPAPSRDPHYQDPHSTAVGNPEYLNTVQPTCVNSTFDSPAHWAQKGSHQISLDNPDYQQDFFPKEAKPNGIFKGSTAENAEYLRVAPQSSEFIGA
Sequence of EGFR L858R/C797S (P00533 25-1210 C797S/L858R): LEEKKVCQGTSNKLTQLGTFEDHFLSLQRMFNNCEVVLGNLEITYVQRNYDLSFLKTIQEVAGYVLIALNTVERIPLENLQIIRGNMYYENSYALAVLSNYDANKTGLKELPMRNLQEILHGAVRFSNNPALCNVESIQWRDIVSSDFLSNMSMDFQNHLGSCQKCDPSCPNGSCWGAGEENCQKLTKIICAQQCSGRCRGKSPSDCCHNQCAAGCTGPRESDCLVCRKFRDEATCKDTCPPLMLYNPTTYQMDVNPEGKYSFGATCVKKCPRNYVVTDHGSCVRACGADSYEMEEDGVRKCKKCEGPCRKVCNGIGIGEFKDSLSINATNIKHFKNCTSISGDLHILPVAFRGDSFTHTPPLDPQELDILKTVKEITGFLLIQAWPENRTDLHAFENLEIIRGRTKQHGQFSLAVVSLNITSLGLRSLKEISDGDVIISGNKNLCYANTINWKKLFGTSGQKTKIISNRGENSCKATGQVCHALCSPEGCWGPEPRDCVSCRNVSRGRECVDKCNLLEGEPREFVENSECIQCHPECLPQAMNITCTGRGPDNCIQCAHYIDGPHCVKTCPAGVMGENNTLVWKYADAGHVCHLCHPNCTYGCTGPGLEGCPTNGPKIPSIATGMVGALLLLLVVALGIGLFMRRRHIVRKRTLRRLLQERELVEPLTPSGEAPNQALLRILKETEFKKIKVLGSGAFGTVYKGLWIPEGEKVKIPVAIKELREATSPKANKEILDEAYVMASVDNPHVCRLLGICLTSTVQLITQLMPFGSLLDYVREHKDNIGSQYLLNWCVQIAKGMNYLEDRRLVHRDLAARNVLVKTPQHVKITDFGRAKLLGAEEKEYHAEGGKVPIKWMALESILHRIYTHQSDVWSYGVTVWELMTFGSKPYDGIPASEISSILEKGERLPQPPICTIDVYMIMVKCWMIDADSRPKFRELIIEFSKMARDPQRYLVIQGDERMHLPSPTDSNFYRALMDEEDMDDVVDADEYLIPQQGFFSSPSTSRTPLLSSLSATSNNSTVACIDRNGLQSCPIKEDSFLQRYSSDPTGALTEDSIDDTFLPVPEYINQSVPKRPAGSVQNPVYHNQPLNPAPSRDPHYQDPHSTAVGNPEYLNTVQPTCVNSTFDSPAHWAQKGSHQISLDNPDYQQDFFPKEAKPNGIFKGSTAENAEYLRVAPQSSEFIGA

For `Cn1nc(-c2cnc(Nc3ccnc(-c4cnn(S(=O)(=O)C5CC5)c4)c3)nc2N[C@H]2CC[C@@H](F)CC2)cc1C(F)(F)F` [Example 371, N^2-(2-(1-(Cyclopropylsulfonyl)-1H-pyrazol-4-yl)pyridin-4-yl)-N^4-((1s,4s)-4-fluorocyclohexyl)-5-(1-methyl-5-(trifluoromethyl)-1H-pyrazol-3-yl)pyrimidine-2,4-diamine], the pIC50 is 9.05 in experiment [1] (Km ATP, read-out: IC50 del19/T790M/C797S, Km ATP); 8.74 in experiment [2] (Km ATP, read-out: IC50 L858R/T790M/C797S, Km ATP); 7.41 in experiment [3] (Km ATP, read-out: IC50 del19/C797S, Km ATP); 7.04 in experiment [4] (Km ATP, read-out: IC50 L858R/C797S, Km ATP); 5.70 in experiment [5] (Km ATP, read-out: IC50 WT, Km ATP).
As to `Cn1nc(-c2cnc(Nc3ccnc(-c4cnn(S(=O)(=O)C5CC5)c4)n3)cc2N[C@H]2CC[C@@H](F)CC2)cc1C(F)(F)F` [Example 175, N^2-(2-(1-(Cyclopropylsulfonyl)-1H-pyrazol-4-yl)pyrimidin-4-yl)-N^4-((1s,4s)-4-fluorocyclohexyl)-5-(1-methyl-5-(trifluoromethyl)-1H-pyrazol-3-yl)pyridine-2,4-diamine], the IC50 in experiment [1] (setting [6]) was 25.3 nM; in experiment [2] (setting [7]), 14.5 nM; in experiment [3] (setting [8]), 41.8 nM; in experiment [4] (setting [9]), 8 nM; in experiment [5] (setting [10]), 91.9 nM.
With `C[C@]1(O)CC[C@@H](Nc2cc(Nc3ccnc(-c4cnn(S(=O)(=O)C5CC5)c4)n3)ncc2-c2ccn(C3CC3)n2)CC1` [Example 290, (1s,4s)-4-((5-(1-Cyclopropyl-1H-pyrazol-3-yl)-2-((2-(1-(cyclopropylsulfonyl)-1H-pyrazol-4-yl)pyrimidin-4-yl)amino)pyridin-4-yl)amino)-1-methylcyclohexan-1-ol], the IC50 stood at 0.1 nM in experiment [1] (setting [11]); 0.1 nM in experiment [1] (setting [6]); 0.2 nM in experiment [2] (setting [12]); 0.1 nM in experiment [2] (setting [7]); 0.5 nM in experiment [3] (setting [13]); 0.2 nM in experiment [3] (setting [8]). In addition, the IC50 in experiment [4] (setting [14]) was 3.4 nM; in experiment [4] (setting [9]), 0.3 nM; in experiment [5] (setting [15]), 2500 nM; in experiment [5] (setting [10]), 2 nM.
In the case of `O=S(=O)(C1CC1)n1cc(-c2nccc(Nc3cc(NC4CC5(CC(O)C5)C4)c(-c4ccn(C(F)F)n4)cn3)n2)cn1` (centres unmarked) [Example 103, 6-((2-((2-(1-(Cyclopropylsulfonyl)-1H-pyrazol-4-yl)pyrimidin-4-yl)amino)-5-(1-(difluoromethyl)-1H-pyrazol-3-yl)pyridin-4-yl)amino)spiro[3.3]heptan-2-ol], the IC50 in experiment [1] (setting [6]) is 0.8 nM; in experiment [2] (setting [7]), 0.4 nM; in experiment [3] (setting [8]), 31 nM; in experiment [4] (setting [9]), 24 nM; in experiment [5] (setting [10]) it was 58.2 nM.
Regarding `O=S(=O)(C1CC1)n1cc(-c2nccc(Nc3cc(N[C@H]4CC[C@@H](NCCF)CC4)c(-c4nc(C(F)F)cs4)cn3)n2)cn1` [Example 123, N^2-(2-(1-(Cyclopropylsulfonyl)-1H-pyrazol-4-yl)pyrimidin-4-yl)-5-(4-(difluoromethyl)thiazol-2-yl)-N^4-((1s,4s)-4-((2-fluoroethyl)amino)cyclohexyl)pyridine-2,4-diamine], the IC50 in experiment [1] (setting [11]) is 0.2 nM; in experiment [1] (setting [6]), 0.3 nM; in experiment [2] (setting [12]), 0.2 nM; in experiment [2] (setting [7]), 0.1 nM; in experiment [3] (setting [13]), 1.3 nM; in experiment [3] (setting [8]), 1.4 nM. Also, the IC50 in experiment [4] (setting [14]) is 22.5 nM; in experiment [4] (setting [9]) it was 1.9 nM; in experiment [5] (setting [15]), over 10000 nM; in experiment [5] (setting [10]) it was 21.6 nM.
As to `CN(C)CC1(C)CCC(Nc2cc(Nc3ccnc(-c4cnn(S(=O)(=O)C5CC5)c4)n3)ncc2-c2ccn(CC(F)F)n2)CC1` (centres unmarked) [Example 246, N^2-(2-(1-(Cyclopropylsulfonyl)-1H-pyrazol-4-yl)pyrimidin-4-yl)-5-(1-(2,2-difluoroethyl)-1H-pyrazol-3-yl)-N^4-(4-((dimethylamino)methyl)-4-methylcyclohexyl)pyridine-2,4-diamine], the IC50 was determined as 0.9 nM in experiment [1] (setting [11]); 1 nM in experiment [1] (setting [6]); 1.1 nM in experiment [2] (setting [12]); 0.3 nM in experiment [2] (setting [7]); 10.2 nM in experiment [3] (setting [13]); 7.1 nM in experiment [3] (setting [8]). The IC50 in experiment [4] (setting [14]) was 400 nM; in experiment [4] (setting [9]), 19.9 nM; in experiment [5] (setting [15]), 4510 nM; in experiment [5] (setting [10]) it was 15.4 nM.
Take `Cc1nn(C)c(F)c1-c1nccc(Nc2cc(N[C@H]3CC[C@@](C)(O)CC3)c(-c3ccn(C(F)F)n3)cn2)n1` [Example 319, (1s,4s)-4-((5-(1-(Difluoromethyl)-1H-pyrazol-3-yl)-2-((2-(5-fluoro-1,3-dimethyl-1H-pyrazol-4-yl)pyrimidin-4-yl)amino)pyridin-4-yl)amino)-1-methylcyclohexan-1-ol]: the IC50 in experiment [1] (setting [6]) came out at 0.4 nM; in experiment [2] (setting [7]), 0.3 nM; in experiment [3] (setting [8]), 47.3 nM; in experiment [4] (setting [9]), 16.9 nM; in experiment [5] (setting [10]) it was 184 nM.
Take `C[C@]1(O)CC[C@@H](Nc2cc(Nc3ccnc(-c4cnn(S(=O)(=O)C5CC5)c4)n3)ncc2-c2cn3c(n2)CCC3)CC1` [Example 274, (1s,4s)-4-((2-((2-(1-(Cyclopropylsulfonyl)-1H-pyrazol-4-yl)pyrimidin-4-yl)amino)-5-(6,7-dihydro-5H-pyrrolo[1,2-a]imidazol-2-yl)pyridin-4-yl)amino)-1-methylcyclohexan-1-ol]: the IC50 worked out at 0.5 nM in experiment [1] (setting [11]); 0.3 nM in experiment [1] (setting [6]); 0.3 nM in experiment [2] (setting [12]); 0.2 nM in experiment [2] (setting [7]); 0.5 nM in experiment [3] (setting [13]); 0.6 nM in experiment [3] (setting [8]). The IC50 in experiment [4] (setting [14]) came out at 3.8 nM; in experiment [4] (setting [9]) it was 0.3 nM; in experiment [5] (setting [15]), 4880 nM; in experiment [5] (setting [10]), 3.4 nM.
`C[C@]1(O)CC[C@@H](Nc2cc(Nc3ccnc(-c4ccc(F)nc4)n3)ncc2-c2ccn(C(F)F)n2)CC1` [Example 113, (1s,4s)-4-((5-(1-(Difluoromethyl)-1H-pyrazol-3-yl)-2-((2-(6-fluoropyridin-3-yl)pyrimidin-4-yl)amino)pyridin-4-yl)amino)-1-methylcyclohexan-1-ol]: the IC50 in experiment [1] (setting [11]) is 17.5 nM; in experiment [2] (setting [12]), 186 nM; in experiment [3] (setting [13]) it was 606 nM; in experiment [4] (setting [14]), 483 nM; in experiment [5] (setting [15]), over 10000 nM; in experiment [5] (setting [10]), over 10000 nM.
With `CN(C)C(=O)n1cc(-c2nccc(Nc3cc(N[C@H]4CC[C@@](C)(O)CC4)c(-c4ccn(C(F)F)n4)cn3)n2)cn1` [Example 311, 4-(4-((5-(1-(Difluoromethyl)-1H-pyrazol-3-yl)-4-(((1s,4s)-4-hydroxy-4-methylcyclohexyl)amino)pyridin-2-yl)amino)pyrimidin-2-yl)-N,N-dimethyl-1H-pyrazole-1-carboxamide], the IC50 is 3.5 nM in experiment [1] (setting [11]); 25.6 nM in experiment [2] (setting [12]); 30.1 nM in experiment [3] (setting [13]); 1020 nM in experiment [4] (setting [14]); over 10000 nM in experiment [5] (setting [15]).
Taken in the same sequence, the figures for `CN(C)C[C@H]1CC[C@@H](Nc2cc(Nc3ccnc(-c4cnn(S(=O)(=O)C5CC5)c4)n3)ncc2-c2ccn(CC(F)(F)F)n2)CC1` [Example 266, N^2-(2-(1-(Cyclopropylsulfonyl)-1H-pyrazol-4-yl)pyrimidin-4-yl)-N^4-((1s,4s)-4-((dimethylamino)methyl)cyclohexyl)-5-(1-(2,2,2-trifluoroethyl)-1H-pyrazol-3-yl)pyridine-2,4-diamine] were 0.1 nM, 0.1 nM, 0.3 nM, 0.9 nM and 206 nM.
In the case of `CN[C@H]1CC[C@H](CNc2cc(Nc3ccnc(-c4cnn(S(=O)(=O)C5CC5)c4)n3)ncc2-c2ccn(C(F)F)n2)CC1` [Example 193, N^2-(2-(1-(Cyclopropylsulfonyl)-1H-pyrazol-4-yl)pyrimidin-4-yl)-5-(1-(difluoromethyl)-1H-pyrazol-3-yl)-N^4-(((1r,4r)-4-(methylamino)cyclohexyl)methyl)pyridine-2,4-diamine], the IC50 in experiment [1] (setting [11]) was 0.2 nM; in experiment [1] (setting [6]), 0.2 nM; in experiment [2] (setting [12]), 0.1 nM; in experiment [2] (setting [7]) it was 0.1 nM; in experiment [3] (setting [13]), 0.7 nM; in experiment [3] (setting [8]), 0.3 nM. The IC50 in experiment [4] (setting [14]) is 7.2 nM; in experiment [4] (setting [9]), 1 nM; in experiment [5] (setting [15]), 2050 nM; in experiment [5] (setting [10]), 4 nM.
`C[C@]1(O)CC[C@@H](Nc2cc(Nc3ccnc(-c4cnn(S(=O)(=O)C5CC5)c4)n3)ncc2-c2ccn(CC(F)F)n2)CC1` [Example 241, (1s,4s)-4-((2-((2-(1-(Cyclopropylsulfonyl)-1H-pyrazol-4-yl)pyrimidin-4-yl)amino)-5-(1-(2,2-difluoroethyl)-1H-pyrazol-3-yl)pyridin-4-yl)amino)-1-methylcyclohexan-1-ol]: the IC50 came to 0.6 nM in experiment [1] (setting [11]); 0.5 nM in experiment [1] (setting [6]); 0.7 nM in experiment [2] (setting [12]); 0.3 nM in experiment [2] (setting [7]); 0.5 nM in experiment [3] (setting [13]); 0.5 nM in experiment [3] (setting [8]). In addition, the IC50 in experiment [4] (setting [9]) was 0.5 nM; in experiment [5] (setting [15]), 2980 nM; in experiment [5] (setting [10]) it was 5 nM.
